What was measured:
Assay type in all cases: in vivo, C57/BL6 mice
Details in all cases: 200 μl of 1% solution i.p., blood 16 hr later, vs saline
[1] = system: neutrophils in the peripheral blood; test: number of neutrophils in peripheral blood, Siemens Advia 120 (Examples 4, 5)
Procedure: About 3-month-old C57/BL6 mice were intraperitoneally injected with 200 μl of saline (control) or 1% solution of respective compounds (dissolved in saline). Blood was collected 16 hr later, and the number of neutrophils in the peripheral blood was measured using Siemens Advia 120.

[2] = system: neutrophils in the whole blood cells; test: ratio of neutrophils in whole blood cells, Siemens Advia 120 (Examples 12, 13)
Procedure: About 3-month-old C57/BL6 mice were intraperitoneally injected with 200 μl of saline (control) or 1% solution of respective compounds (dissolved in saline). Blood was collected 16 hr later, and the ratio of neutrophils in the whole blood cells was measured using Siemens Advia 120.

[3] = system: basophils in the whole blood cells; test: ratio of basophils in whole blood cells, Siemens Advia 120 (Example 14)
Procedure: About 3-month-old C57/BL6 mice were intraperitoneally injected with 200 μl of saline (control) or 1% solution of respective compounds (dissolved in saline). Blood was collected 16 hr later, and the ratio of basophils in the whole blood cells was measured using Siemens Advia 120.

[4] = system: monocytes in the whole blood cells; test: ratio of monocytes in whole blood cells, Siemens Advia 120 (Examples 10, 11)
Procedure: About 3-month-old C57/BL6 mice were intraperitoneally injected with 200 μl of saline (control) or 1% solution of respective compounds (dissolved in saline). Blood was collected 16 hr later, and the ratio of monocytes in the whole blood cells was measured using Siemens Advia 120.
About 3-month-old C57/BL6 mice were intraperitoneally injected with 200 μl of saline (control) or 1% allyl isothiocyanate solution (dissolved in saline). Blood was collected 16 hr later, and the ratio of monocytes in the whole blood cells was measured using Siemens Advia 120.

[5] = system: monocytes in the peripheral blood; test: number of monocytes in peripheral blood, Siemens Advia 120 (Examples 6, 7)
Procedure: About 3-month-old C57/BL6 mice were intraperitoneally injected with 200 μl of saline (control) or 1% solution of respective compounds (dissolved in saline). Blood was collected 16 hr later, and the number of monocytes in the peripheral blood was measured using Siemens Advia 120.
About 3-month-old C57/BL6 mice were intraperitoneally injected with 200 μl of saline (control) or 1% allyl isothiocyanate solution (dissolved in saline). Blood was collected 16 hr later, and the number of monocytes in the peripheral blood was measured using Siemens Advia 120.

[6] = system: basophils in the peripheral blood; test: number of basophils in peripheral blood, Siemens Advia 120 (Example 8)
Procedure: About 3-month-old C57/BL6 mice were intraperitoneally injected with 200 μl of saline (control) or 1% solution of respective compounds (dissolved in saline). Blood was collected 16 hr later, and the number of basophils in the peripheral blood was measured using Siemens Advia 120.

CC(=O)c1cccnc1 [3-Acetylpyridine]
neutrophils in the peripheral blood (number) [1]: increase
ratio of neutrophils in the whole blood cells [2]: increases

CC(=O)c1ccc[nH]1 [2-Acetylpyrrole]
neutrophils in the peripheral blood (number) [1]: increase
ratio of neutrophils in the whole blood cells [2]: increases

CC1=NC(CC(C)C)SC1C (centres unmarked) [2-Isobutyl-4,5-dimethyl-3-thiazoline]
neutrophils in the peripheral blood (number) [1]: increase

O=C1CSc2ccccc2N1 [2H-1,4-benzothiazin-3(4H)one]
neutrophils in the peripheral blood (number) [1]: increase
ratio of neutrophils in the whole blood cells [2]: increases

CCC(=O)c1cccs1 [2-Propionyl thiophene]
ratio of neutrophils in the whole blood cells [2]: increases

CC(=O)c1nccs1 [2-Acetylthiazole]
ratio of basophils in the whole blood cells [3]: increases
ratio of neutrophils in the whole blood cells [2]: increases

C=C(C)CN=C=S [Methallyl isothiocyanate]
neutrophils in the peripheral blood (number) [1]: increase
ratio of neutrophils in the whole blood cells [2]: increases

CC(=O)c1sc(C)nc1C [5-Acetyl-2,4-dimethylthiazole]
neutrophils in the peripheral blood (number) [1]: increase
ratio of basophils in the whole blood cells [3]: increases
ratio of neutrophils in the whole blood cells [2]: increases

Cc1ncsc1C [4,5-Dimethylthiazole]
ratio of monocytes in the whole blood cells [4]: increases
neutrophils in the peripheral blood (number) [1]: increase
ratio of neutrophils in the whole blood cells [2]: increases

CCOc1nccs1 [2-Ethoxythiazole]
ratio of monocytes in the whole blood cells [4]: increases
neutrophils in the peripheral blood (number) [1]: increase
ratio of neutrophils in the whole blood cells [2]: increases

CC(C)Cc1nccs1 [2-Isobutylthiazole]
ratio of neutrophils in the whole blood cells [2]: increases

Clc1ccsc1 [3-Chlorothiophene]
ratio of monocytes in the whole blood cells [4]: increases
neutrophils in the peripheral blood (number) [1]: increase
ratio of basophils in the whole blood cells [3]: increases
ratio of neutrophils in the whole blood cells [2]: increases

Cc1nccs1 [2-Methylthiazole]
ratio of basophils in the whole blood cells [3]: increases
ratio of neutrophils in the whole blood cells [2]: increases

Cc1nc(C(C)(C)C)cs1 [4-tert-Butyl-2-methylthiazole]
neutrophils in the peripheral blood (number) [1]: increase

Cc1nccnc1SCc1ccco1 [2-Furfurylthio-3-methylpyrazine]
ratio of monocytes in the whole blood cells [4]: increases
neutrophils in the peripheral blood (number) [1]: increase
number of monocytes in the peripheral blood [5]: increase
ratio of neutrophils in the whole blood cells [2]: increases

Cc1ccco1 [2-Methylfuran]
number of basophils in the peripheral blood [6]: increases
ratio of basophils in the whole blood cells [3]: increases

2-Methyl-(3 or 5 or 6)-methylthio pyrazine [2-Methyl-(3 or 5 or 6)-methylthio pyrazine (mixture of isomers)]
ratio of monocytes in the whole blood cells [4]: increases
ratio of neutrophils in the whole blood cells [2]: increases

CC(=O)c1cccn1C [2-Acetyl-1-methylpyrrole]
neutrophils in the peripheral blood (number) [1]: increase
ratio of neutrophils in the whole blood cells [2]: increases

Cc1c[nH]c(C)c1 [2,4-Dimethylpyrrole]
ratio of neutrophils in the whole blood cells [2]: increases

CCc1nccnc1C(C)=O [2-Acetyl-3-ethylpyrazine]
ratio of monocytes in the whole blood cells [4]: increases
ratio of basophils in the whole blood cells [3]: increases
ratio of neutrophils in the whole blood cells [2]: increases

Cc1cccc(C)n1 [2,6-Lutidine]
number of basophils in the peripheral blood [6]: increases
ratio of basophils in the whole blood cells [3]: increases

C=CCN=C=S [Allyl isothiocyanate]
ratio of monocytes in the whole blood cells [4]: increases
neutrophils in the peripheral blood (number) [1]: increase
number of monocytes in the peripheral blood [5]: increases
ratio of neutrophils in the whole blood cells [2]: increases

SC1=NCCS1 [2-Mercaptothiazoline]
ratio of monocytes in the whole blood cells [4]: increases
neutrophils in the peripheral blood (number) [1]: increase
number of monocytes in the peripheral blood [5]: increase
ratio of basophils in the whole blood cells [3]: increases
ratio of neutrophils in the whole blood cells [2]: increases

CSC1=NCCS1 [2-(Methylthio)-2-thiazoline]
neutrophils in the peripheral blood (number) [1]: increase
ratio of neutrophils in the whole blood cells [2]: increases

C1CCCNCC1 [Azepane]
ratio of monocytes in the whole blood cells [4]: increases
neutrophils in the peripheral blood (number) [1]: increase
ratio of neutrophils in the whole blood cells [2]: increases

CCc1cccs1 [2-Ethylthiophene]
neutrophils in the peripheral blood (number) [1]: increase

S=C=NCc1ccccc1 [Benzyl isothiocyanate]
neutrophils in the peripheral blood (number) [1]: increase
ratio of neutrophils in the whole blood cells [2]: increases

CCc1ccc[nH]1 [2-Ethylpyrrole]
ratio of basophils in the whole blood cells [3]: increases
ratio of neutrophils in the whole blood cells [2]: increases

CC1(C)NCCS1 [2,2-Dimethylthiazolidine]
ratio of basophils in the whole blood cells [3]: increases
ratio of neutrophils in the whole blood cells [2]: increases

C=CCCCN=C=S [4-Pentenyl Isothiocyanate]
neutrophils in the peripheral blood (number) [1]: increase
ratio of neutrophils in the whole blood cells [2]: increases

c1cscn1 [Thiazole]
ratio of neutrophils in the whole blood cells [2]: increases

c1ccc2sccc2c1 [Benzothiophene]
neutrophils in the peripheral blood (number) [1]: increase
ratio of neutrophils in the whole blood cells [2]: increases

C1CSCCN1 [Thiomorpholine]
ratio of monocytes in the whole blood cells [4]: increases

CCc1ccco1 [2-Ethylfuran]
ratio of basophils in the whole blood cells [3]: increases

CSC1CSC=N1 (centres unmarked) [4-(Methylthio)-2-thiazoline]
ratio of monocytes in the whole blood cells [4]: increases
neutrophils in the peripheral blood (number) [1]: increase
ratio of neutrophils in the whole blood cells [2]: increases

O=C1CSC(=O)N1 [Thiazolidine-2,4-dione]
neutrophils in the peripheral blood (number) [1]: increase

CC(=O)c1ccncc1 [4-Acetylpyridine]
ratio of monocytes in the whole blood cells [4]: increases
neutrophils in the peripheral blood (number) [1]: increase
number of monocytes in the peripheral blood [5]: increase
ratio of neutrophils in the whole blood cells [2]: increases

Cc1csc(C(C)C)n1 [2-Isopropyl-4-methylthiazole]
ratio of basophils in the whole blood cells [3]: increases
ratio of neutrophils in the whole blood cells [2]: increases

Cc1ccc(C)o1 [2,5-Dimethylfuran]
number of basophils in the peripheral blood [6]: increases

Cc1nc(C)c(C)s1 [2,4,5-Trimethylthiazole]
ratio of neutrophils in the whole blood cells [2]: increases

CSc1nc2ccccc2s1 [2-(Methylthio)benzothiazole]
neutrophils in the peripheral blood (number) [1]: increase
ratio of neutrophils in the whole blood cells [2]: increases

Cc1cc[nH]c1 [3-Methylpyrrole]
ratio of neutrophils in the whole blood cells [2]: increases

Clc1nccs1 [2-Chlorothiazole]
ratio of basophils in the whole blood cells [3]: increases
ratio of neutrophils in the whole blood cells [2]: increases

CC1NCCSC1C (centres unmarked) [2,3-Dimethylthiomorpholine]
ratio of monocytes in the whole blood cells [4]: increases

CCc1nccnc1CC [2,3-Diethylpyrazine]
neutrophils in the peripheral blood (number) [1]: increase
ratio of neutrophils in the whole blood cells [2]: increases

CC1CNCCS1 (centres unmarked) [2-Methylthiomorpholine]
neutrophils in the peripheral blood (number) [1]: increase
ratio of neutrophils in the whole blood cells [2]: increases

CSCCCN=C=S [3-(Methylthio)propyl isothiocyanate]
neutrophils in the peripheral blood (number) [1]: increase

Cc1cc2ccccc2[nH]1 [2-Methylindole]
ratio of monocytes in the whole blood cells [4]: increases

CC(C)N=C=S [Isopropyl isothiocyanate]
neutrophils in the peripheral blood (number) [1]: increase

Cc1ccsc1 [3-Methylthiophene]
ratio of basophils in the whole blood cells [3]: increases

Cc1cccs1 [2-Methylthiophene]
ratio of neutrophils in the whole blood cells [2]: increases

C=CCSC1=NCCS1 [2-(Allylthio)-2-thiazoline]
ratio of monocytes in the whole blood cells [4]: increases
number of monocytes in the peripheral blood [5]: increase

CC(=O)c1cc(C)sc1C [3-Acetyl-2,5-dimethylthiophene]
ratio of monocytes in the whole blood cells [4]: increases
neutrophils in the peripheral blood (number) [1]: increase
ratio of basophils in the whole blood cells [3]: increases
ratio of neutrophils in the whole blood cells [2]: increases

CC(=O)c1cc(C)oc1C [3-Acetyl-2,5-dimethylfuran]
ratio of basophils in the whole blood cells [3]: increases

c1coc(Cn2cccc2)c1 [1-Furfurylpyrrole]
ratio of neutrophils in the whole blood cells [2]: increases

CCCCCCc1cccs1 [2-Hexylthiophene]
neutrophils in the peripheral blood (number) [1]: increase
ratio of neutrophils in the whole blood cells [2]: increases

Source: US20230149420A1, “ANTI-INFLAMMATORY IMMUNOENHANCER” (SCENT SCIENCE INTERNATIONAL INC., priority 2020, published 2023)
